Values after ≈ are worked out from the molar mass of the structure shown.
Columns and labels:
Staphylococcus aureus = assay: Antibacterial activity against Staphylococcus aureus; assay type: functional
Pasteurella multocida = assay: Antibacterial activity against Pasteurella multocida; assay type: functional

| Compound | MIC (Staphylococcus aureus) [µg/mL] | MIC (Pasteurella multocida) [µg/mL] |
| --- | --- | --- |
| CC(=O)C1=C(O)C(C)(C/C=C/c2ccccc2)SC1=O (stereo not given) | 3.13 (≈ 10.9 µM) | > 200 |
| CC(=O)C1=C(O)SCC1=O | > 200 | > 200 |
| CC(=O)C1=C(O)S/C(=C\c2ccccn2)C1=O | > 200 | 100 (≈ 404 µM) |
| CCOC(=O)/C=C/C=C/C(C)=C/[C@@]1(C)SC(O)=C(C)C1=O | > 100 | > 100 |
| CC(=O)C1=C(O)SC(COC(=O)Cc2ccccc2)C1=O (stereo not given) | 3.13 (≈ 10.2 µM) | > 200 |
| CC1=C(O)S[C@](C)(/C=C(\C)C#N)C1=O | > 100 | > 100 |
| CC(=O)C1=C(O)S/C(=C\c2cccs2)C1=O | > 200 | 1.56 (≈ 6.18 µM) |
| CC(=O)C1=C(O)S/C(=C\c2ccc(O)cc2)C1=O | > 200 | > 200 |
| CC(=O)C1=C(O)SC(C/C=C(\C)CC/C=C(\C)CCC=C(C)C)C1=O (stereo not given) | 1.56 (≈ 4.3 µM) | 0.2 (≈ 0.552 µM) |
| CC(=O)C1=C(O)S/C(=C\c2ccc(C#N)cc2)C1=O | 3.13 (≈ 11.5 µM) | > 200 |
| CC(=O)C1=C(O)S/C(=C\c2ccccc2)C1=O | > 200 | > 200 |
| CC(=O)C1=C(O)S/C(=C\c2cccc(OCc3ccccc3)c2)C1=O | 3.13 (≈ 8.88 µM) | > 200 |
| CC(=O)C1=C(O)SC(C/C=C(/C)CC/C=C(\C)CCC=C(C)C)(C/C=C(/C)CC/C=C(\C)CCC=C(C)C)C1=O | > 200 | > 200 |
| CC1=C(O)S[C@](C)(/C=C(\C)CO)C1=O | > 100 | > 100 |
| CCCNC/C(C)=C/[C@@]1(C)SC(O)=C(C)C1=O | > 100 | > 100 |
| CC1=C(O)S[C@](C)(/C=C(C)/C=C/c2ccccc2)C1=O | > 100 | > 100 |
| CCOC(=O)/C=C/C(C)=C/[C@@]1(C)SC(O)=C(C)C1=O | > 100 | > 100 |
| CC(=O)C1=C(O)SC(Cc2cccc(C(F)(F)F)c2)C1=O (stereo not given) | 3.13 (≈ 9.9 µM) | 3.13 (≈ 9.9 µM) |
| CC(=O)C1=C(O)C(C)(Cc2ccc(F)cc2)SC1=O (stereo not given) | > 200 | > 200 |
| CC(=O)C1=C(O)SC(C)C1=O (stereo not given) | 50 (≈ 290 µM) | 6.25 (≈ 36.3 µM) |

| Compound | MIC (Staphylococcus aureus) [µg/mL] | MIC (Pasteurella multocida) [µg/mL] |
| --- | --- | --- |
| CC(=O)OC1=C(C)C(=O)S[C@]1(C)/C=C(\C)C=O | > 100 | > 100 |
| CC(=O)C1=C(O)S/C(=C\c2cccc(F)c2)C1=O | 50 (≈ 189 µM) | 6.25 (≈ 23.6 µM) |
| CC(=O)C1=C(O)S/C(=C\c2cccc(Oc3ccc(Cl)c(Cl)c3)c2)C1=O | 1.56 (≈ 3.83 µM) | 0.2 (≈ 0.491 µM) |
| C=C/C(C)=C\[C@@]1(C)SC(O)=C(C)C1=O | > 100 | 0.2 (≈ 0.951 µM) |
| CC(=O)C1=C(O)S/C(=C\c2ccc3c(c2)OCO3)C1=O | > 200 | > 200 |
| CC(=O)C1=C(O)SC(C/C=C/c2ccccc2)C1=O (stereo not given) | 3.13 (≈ 11.4 µM) | 3.13 (≈ 11.4 µM) |
| CCCCCC(=O)/C=C/C(C)=C/[C@@]1(C)SC(O)=C(C)C1=O | > 100 | > 100 |
| CC(=O)C1=C(O)SC(C)(C/C=C(/C)CCC=C(C)C)C1=O (stereo not given) | > 200 | 100 (≈ 324 µM) |
| CC(=O)C1=C(O)S/C(=C\c2cccc(Oc3cccc(C(F)(F)F)c3)c2)C1=O | 0.78 (≈ 1.92 µM) | 3.13 (≈ 7.7 µM) |
| CC(=O)/C=C/C(C)=C/[C@@]1(C)SC(O)=C(C)C1=O | > 100 | > 100 |
| CC(=O)C1=C(O)S/C(=C\c2ccc(Cl)cc2Cl)C1=O | 3.13 (≈ 9.93 µM) | 3.13 (≈ 9.93 µM) |
| CC1=C(O)S[C@](C)(/C=C(C)/C=N/OCc2ccccc2)C1=O | > 100 | > 100 |
| CC(=O)C1=C(O)S/C(=C\c2ccc(C(F)(F)F)cc2)C1=O | 3.13 (≈ 9.96 µM) | 3.13 (≈ 9.96 µM) |
| CC1=C(O)S[C@](C)(/C=C(\C)C=C(Br)Br)C1=O | > 100 | > 100 |
| CC(=O)C1=C(O)S/C(=C\c2ccc(F)cc2)C1=O | > 200 | 3.13 (≈ 11.8 µM) |
| CC1=C(O)S[C@](C)(/C=C(C)/C=C/C#N)C1=O | > 100 | > 100 |
| CC(=O)C1=C(O)SC(CCC(C)CCCC(C)C)C1=O (stereo not given) | 0.78 (≈ 2.61 µM) | 3.13 (≈ 10.5 µM) |
| C=C/C(C)=C/[C@@]1(C)SC(=O)C(C)=C1OC(C)=O | > 100 | > 100 |
| CC(=O)C1=C(O)SC(C)(C/C=C(\C)CC/C=C(\C)CCC=C(C)C)C1=O (stereo not given) | > 200 | 1.56 (≈ 4.14 µM) |
| CC(=O)C1=C(O)S/C(=C\N(C)C)C1=O | > 200 | > 200 |

Reference: ChEMBL document CHEMBL1134742, “Synthesis and structure-activity relationships of thiotetronic acid analogues of thiolactomycin” (2001)
